Patent publication US6384040B1, “Condensed 4-thioxopyrimidine derivatives as microbicides” (Syngenta Crop Protection, Inc., priority 1998, dated 2002)

What was measured:
Uncinula necator = test: Action against Uncinula necator on vines; format: in vivo; conditions: vine cuttings sprayed with 200 ppm a.i., infected 24 hours later, evaluation ca. 14 days after infection
Method: Example B-3: Action Against Uncinula necator on Vines
5 week old vine cuttings are sprayed with a spray mixture (200 ppm a.i.) prepared from a wettable powder formulation of the test compound. The plants are infected 24 hours later by conidias from strongly infested vine leafs that are shaken off over the test plants. The plants are then incubated at 26° C. and 60% relative humidity. The evaluation of the fungal infestation is made ca. 14 days after infection.

| SMILES | control activity (Uncinula necator) | melting point |
| --- | --- | --- |
| CCCOc1nc2sc(Cl)cc2c(=S)n1CCC [Compound 1, 6-Chloro-2-propoxy-3-propyl-4-thioxo-thieno[2,3-d]pyrimidine] | complete control activity | – |
| CCCOc1nc2sc(Br)cc2c(=S)n1CCC [Compound 2, 6-bromo-2-propoxy-3-propyl-4-thioxo-thieno[2,3-d]pyrimidine] | complete control activity | 110 to 112 °C |
| CCCCn1c(OCCC)nc2sc(Cl)cc2c1=S [Compound 3, 3-butyl-6-chloro-2-propoxy-4-thioxo-thieno[2,3-d]pyrimidine] | complete control activity | 68 to 70 °C |
| CCCCn1c(OCCC)nc2sc(Br)cc2c1=S [Compound 4, 6-bromo-3-butyl-2-propoxy-4-thioxo-thieno[2,3-d]pyrimidine] | complete control activity | 95 to 97 °C |
